Results on 26 compounds are retold here after patent EP2951180B1, “2,6,7,8 SUBSTITUTED PURINES AS HDM2 INHIBITORS” (Merck Sharp & Dohme Corp., priority 2013, dated 2014).

The assay addresses T1, HDM2 (Homo sapiens, UniProt Q00987).
T1 construct: Thioredoxin (N); made in house; host or cells: E. coli strain BL21(DE3)Rosetta
The assay can be described thus: HDM2 FRET assay (inhibition of binding of FITC labeled p53-pocket peptide to HDM2). The note with it: read-out: FRET IC50. In outline: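 Compounds were tested in 10-point serial dilution against 0.5 nM recombinant HDM2 binding 3 nM fluorescein-labeled p53-pocket peptide. Detection used 0.25 nM terbium cryptate anti-6xHis antibody in PBS buffer containing 0.01% BSA and 0.01% Tween-20.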

Setting [1] is: 0.5 nM HDM2 (residues 17 to 125), 3nM peptide, two hour incubation at room temperature.

Read-outs that look alike come from different tables or passages of the source.

T1 sequence (Q00987 17-125): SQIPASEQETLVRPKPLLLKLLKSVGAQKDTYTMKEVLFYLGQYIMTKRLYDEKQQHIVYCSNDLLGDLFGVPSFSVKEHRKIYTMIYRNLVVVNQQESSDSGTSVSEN

Consider `CC[C@H]1CC[C@H](Cn2c(N3CCOC[C@H]3c3ccccc3)nc3nc(-c4noc(=O)[nH]4)nc(N[C@H](C)C4CCC4)c32)CC1` [Example 18.22, 3-(6-{[(1R)-1-cyclobutylethyl]amino}-7-[(trans-4-ethylcyclohexyl)methyl]-8-[(3R)-3-phenylmorpholin-4-yl]-7H-purin-2-yl)-1,2,4-oxadiazol-5(4H)-one], for which the half-maximal inhibitory concentration (IC50) (commonly the concentration needed to halve the response being measured) (Table 18) worked out at 3.86 nM. In the case of `C[C@@H](Nc1nc(C(=O)O)nc2nc(C3CCCCC3c3ccccc3)n(Cc3ccc(C(F)(F)F)cc3)c12)C1CCC1` (single isomer, unassigned) [Example 21.1], the IC50 (Table 21) worked out at 10.2 nM.

Take `CC(=O)c1nc(N[C@H](C)C2CCC2)c2c(n1)nc(-c1cc(C(C)C)ccn1)n2C[C@H]1CC[C@H](C)CC1` [Example 12.5, 1-(6-{[(1R)-1-cyclobutylethyl]amino}-7-[(trans-4-methylcyclohexyl)methyl]-8-[4-(propan-2-yl)pyridin-2-yl]-7H-purin-2-yl)ethanone]: under setting [1], the half-maximal inhibitory concentration (IC50) was 471 nM.

As for `CC1CS(=O)(=O)CCN1c1nc2nc(-c3noc(=O)[nH]3)nc(N[C@H](C)C3CCC3)c2n1C[C@H]1CC[C@H](C)CC1` (stereo partly drawn) [Example 11.124, 3-[6-{[(1R)-1-cyclobutylethyl]amino}-7-[(trans-4-methylcyclohexyl)methyl]-8-(3-methyl-1,1-dioxidothiomorpholin-4-yl)-7H-purin-2-yl]-1,2,4-oxadiazol-5(2H)-one], the IC50 (Table 11) came out at 9.62 nM. On to `C[C@@H](Nc1nc(-c2noc(=O)[nH]2)nc2nc(C3(c4cccnc4)CC3)n(C[C@H]3CC[C@H](C)CC3)c12)C1CCC1` [Example 22.39, 3-[6-{[(1R)-1-cyclobutylethyl]amino}-7-[(trans-4-methylcyclohexyl)methyl] -8-(1-pyridin-3-ylcyclopropyl)-7H-purin-2-yl]-1,2,4-oxadiazol-5(2H)-one], for which, under “Table 22”, the IC50 was found to be 13.9 nM. `CCC1=CCC(Cn2c(-c3cc(C(C)C)ccn3)nc3nc(C(=O)O)nc(N[C@H](C)C4CCC4)c32)CC1` (stereo partly drawn) [Example 18.24, 6-{[(1R)-1-cyclobutylethyl]amino}-7-[(4-ethylcyclohex-3-en-1-yl)methyl]-8-[4-(1-methylethyl)pyridin-2-yl]-7H-purine-2-carboxylic acid]: the 50% inhibitory concentration (IC50) (Table 18) is 15.9 nM. `C[C@@H](Nc1nc(NCC(=O)O)nc2nc(N3CCOC[C@H]3c3ccccc3)n(C[C@H]3CC[C@H](C)CC3)c12)C1CCC1` [Example 13.6, N-(6-{[(1R)-1-cyclobutylethyl]amino}-7-[(trans-4-methylcyclohexyl)methyl]-8-[(3R)-3-phenylmorpholin-4-yl]-7H-purin-2-yl)glycine]: under setting [1], the 50% inhibitory concentration (IC50) is 146 nM. Turning to `C[C@H]1CC[C@H](Cn2c(N3CCOC[C@H]3C(N)=O)nc3nc(-c4noc(=O)[nH]4)nc(-c4cccc(Cl)c4)c32)CC1` [Example 16.117, (3 S)-4-[6-(3-chlorophenyl)-7-[(trans-4-methylcyclohexyl)methyl]-2-(5-oxo-4,5-dihydro-1,2,4-oxadiazol-3-yl)-7H-purin-8-yl]morpholine-3-carboxamide], the concentration for half-maximal inhibition (IC50) under setting [1] came out at 105 nM.

On to `C[C@H](Nc1nc2nc(C(=O)O)nc(N[C@H](C)C3CCC3)c2n1Cc1ccc(C(F)(F)F)cc1)c1ccc(F)cc1` [Example 9.1, 6-{[(1R)-1-cyclobutylethyl]amino}-8-{[(1S)-1-(4-fluorophenyl)ethyl]amino}-7-[4-(trifluoromethyl)benzyl]-7H-purine-2-carboxylic acid], for which, for the setting “Table 9”, the half-maximal inhibitory concentration (IC50) turned out to be 1.81 nM.

For `C[C@@H](Nc1nc(-c2noc(=O)[nH]2)nc2nc(C3(O)CCCCC3)n(C[C@H]3CC[C@H](C)CC3)c12)C1CCC1` [Example 22.43, 3-(6-{[(1R)-1-cyclobutylethyl]amino}-8-(1-hydroxycyclohexyl)-7-[(trans-4-methylcyclohexyl)methyl] -7H-purin-2-yl)-1,2,4-oxadiazol-5(4H)-one], the IC50 (Table 22) amounted to 13.1 nM. `C[C@H]1CC[C@H](Cn2c(N3CCC[C@H]3C(F)(F)F)nc3nc(-c4noc(=O)[nH]4)nc(-c4cccc(Cl)c4)c32)CC1` [Example 16.69, 3-{6-(3-chlorophenyl)-7-[(trans-4-methylcyclohexyl)methyl]-8-[(2S)-2-(trifluoromethyl)pyrrolidin-1-yl]-7H-purin-2-yl}-1,2,4-oxadiazol-5 (4H)-one]: the concentration for half-maximal inhibition (IC50) under setting [1] was determined as 0.918 nM. The same measure, in the same setting: the result for `C[C@H]1CC[C@H](Cn2c(N3CCO[C@H]4CCC[C@@H]43)nc3nc(-c4n[nH]c(=O)o4)nc(-c4cccc(Cl)c4)c32)CC1` [Example 16.83, 5-{6-(3-chlorophenyl)-8-[(4aS,7aS)-hexahydrocyclopenta [b][1,4]oxazin-4(4aH)-yl]-7-[(trans-4-methylcyclohexyl)methyl]-7H-purin-2-yl}-1,3,4-oxadiazol-2(3H)-one] reads 186 nM. On the same count and under the same terms, the result for `C[C@@H](Nc1nc([S+](C)[O-])nc2nc(N3CCOC[C@H]3c3ccccc3)n(C[C@H]3CC[C@H](C)CC3)c12)C1CCC1` (single isomer, unassigned) [Example 14.2] reads 10.5 nM; that for `C[C@H]1CC[C@H](Cn2c(N3CCOC[C@H]3CO)nc3nc(-c4noc(=O)[nH]4)nc(-c4cccc(Cl)c4)c32)CC1` [Example 16.45, 3-{6-(3-chlorophenyl)-8-[(3R)-3-(hydroxymethyl)mor pholin-4-yl]-7-[(trans-4-methylcyclohexyl)methyl]-7H-purin-2-yl}-1,2,4-oxadiazol-5(4H)-one], 47.5 nM. `C[C@@H](Nc1nc(C(=O)O)nc2nc(CN(C)Cc3ccccc3)n(Cc3ccc(C(F)(F)F)cc3)c12)C1CCC1` [Example 10.13, (R)-8-((benzyl(methyl)amino)methyl)-6-((1-cyclobutylethyl)amino)-7-(4-(trifluoromethyl)benzyl)-7H-purine-2-carboxylic acid]: the IC50 (Table 10) was determined as 47.7 nM. Turning to `C[C@H]1CC[C@H](Cn2c(C3(c4ccccc4)CCC3)nc3nc(-c4noc(=O)[nH]4)nc(-c4cncc(Cl)c4)c32)CC1` [Example 20.11, 3-[6-(5-chloropyridin-3-yl)-7-[(trans-4-methylcyclohexyl)methyl]-8-(1-phenylcyclobutyl)-7H-purin-2-yl]-1,2,4-oxadiazol-5(4H)-one], for the setting “Table 20”, the concentration for half-maximal inhibition (IC50) came to 3.39 nM.

As for `Cc1ncc(Cl)cc1-c1nc(-c2noc(=O)[nH]2)nc2nc(N3CCOC[C@H]3c3ccccc3)n(C[C@H]3CC[C@H](C)CC3)c12` [Example 16.158, 3-{6-(5-chloro-2-methylpyridin-3-yl)-7-[(trans-4-methylcyclohexyl)methyl]-8-[(3R)-3-phenylmorpholin-4-yl]-7H-purin-2-yl}-1,2,4-oxadiazol-5(4H)-one], under setting [1], the half-maximal inhibitory concentration (IC50) was determined as 0.601 nM. `Cc1cccc(-c2nc3nc(C(=O)O)nc(N[C@H](C)C4CCC4)c3n2Cc2ccc(Cl)cc2)c1` [Example 6.2, 7-(4-chlorobenzyl)-6-{[(1R)-1-cyclobutylethyl]amino}-8-(3-methylphenyl)-7H-purine-2-carboxylic acid]: the IC50 (Table 6) is 13.9 nM. Regarding `C[C@@H](Nc1nc(C(=O)O)nc2nc(N3CCCCC3Cc3ccc(F)cc3)n(Cc3ccc(C(F)(F)F)cc3)c12)C1CCC1` (stereo partly drawn) [Example 9.69, 6-{[(1R)-1-cyclobutylethyl]amino}-8-[2-(4-fluorobenzyl)piperidin-1-yl]-7-[4-(trifluoromethyl)benzyl]-7H-purine-2-carboxylic acid], the IC50 (Table 9) came to 7.92 nM.

For the compound `C[C@@H](Nc1nc(C(=O)O)nc2nc(-c3ccc4sccc4c3)n(Cc3ccc(C(F)(F)F)cc3)c12)C1CCC1` [Example 6.14, 8-(1-benzothiophen-5-yl)-6-{[(1R)-1-cyclobutylethyl]amino}-7-[4-(trifluoromethyl)benzyl]-7H-purine-2-carboxylic acid], for the setting “Table 6”, the IC50 stood at 35.3 nM. As for `CC(Nc1nc2nc(-c3noc(=O)[nH]3)nc(N[C@H](C)C3CCC3)c2n1C[C@H]1CC[C@H](C)CC1)c1cncnc1` (stereo partly drawn) [Example 11.92, 3-(6-{[(1R)-1-cyclobutylethyl]amino}-7-[(trans-4-methylcyclohexyl)methyl]-8-[(1-pyrimidin-5-ylethyl)amino]-7H-purin-2-yl)-1,2,4-oxadiazol-5(2H)-one], the half-maximal inhibitory concentration (IC50) (Table 11) is 11.7 nM. For the compound `C[C@@H](Nc1nc(C(=O)O)nc2nc(C3=C(c4ccccc4)CCCC3)n(C[C@H]3CC[C@H](C)CC3)c12)C1CCC1` [Example 21.18, 6-{[(1R)-1-cyclobutylethyl]amino}-7-[(trans-4-methylcyclohexyl)methyl]-8-(2-phenylcyclohex-1-en-1-yl)-7H-purine-2-carboxylic acid], the IC50 (Table 21) is 6.5 nM.

Regarding `C[C@@H](Nc1nc(-c2noc(=O)[nH]2)nc2nc(C3=C(c4ccccc4)CCCC3)n(C[C@H]3CC[C@H](C)CC3)c12)C1CCC1` [Example 21.16, 3-[6-{[(1R)-1-cyclobutylethyl]amino}-7-[(trans-4-methylcyclohexyl)methyl]-8-(2-phenylcyclohex-1-en-1-yl)-7H-purin-2-yl]-1,2,4-oxadiazol-5(4H)-one], the IC50 (Table 21) came out at 12.2 nM. Turning to `Cc1cccc(-c2nc3nc(C(=O)O)nc(N[C@H](C)C4CCC4)c3n2C[C@H]2CC[C@@H](C(F)(F)F)CC2)c1` [Example 18.29, 6-{[(1R)-1-cyclobutylethyl]amino}-8-(3-methylphenyl)-7-{[cis-4-(trifluoromethyl)cyclohexyl]methyl}-7H-purine-2-carboxylic acid], under “Table 18”, the half-maximal inhibitory concentration (IC50) was 677 nM. Take `CCN(C)c1nc(C(=O)O)nc2nc(-c3cccc(C)c3)n(Cc3ccc(C(F)(F)F)cc3)c12` [Example 6.59, 6-[ethyl(methyl)amino]-8-(3-methylphenyl)-7-[4-(trifluoromethyl)benzyl]-7H-purine-2-carboxylic acid]: the half-inhibitory concentration (IC50) (Table 6) stood at 1000 nM. For the compound `Cc1cccc(-c2nc3nc(C(=O)O)nc(N(C)CC(C)C)c3n2Cc2ccc(C(F)(F)F)cc2)c1` [Example 6.71, 6-[methyl(2-methylpropyl)amino]-8-(3-methylphenyl)-7-[4-(trifluoromethyl)benzyl]-7H-purine-2-carboxylic acid], the IC50 (Table 6) amounted to 940 nM.
